Read-outs that look alike come from different tables or passages of the source.
How the values were obtained:
[1] = target: T1, Plasmodium falciparum calcium-dependent protein kinase 1 (CDPK1) (Plasmodium falciparum, UniProt P62344); test: CDPK1 Kinase-Glo ATP-consumption screen and dose-response; assay type: biochemical; settings: hits below 1 uM; read-out: CDPK1 IC50
T1 construct: 6-Histidine (N); made in house
Outline: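 Single-point testing used 1 μM final compound, then dose-response, against CDPK4 and CDPK1 with Syntide-2 (40 μM) as substrate. After 90 min, reactions were halted by 5 mM EGTA, and kinase activity was inferred from depleted ATP via Kinase-Glo luminescence.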

[2] = target: T2, Plasmodium falciparum calcium-dependent protein kinase 4 (CDPK4) (Plasmodium falciparum, UniProt Q8IBS5); test: CDPK4 Kinase-Glo ATP-consumption screen and dose-response; assay type: biochemical; settings: hits below 1 uM
T2 construct: 6-Histidine (N); made in house
T2 sequence (Q8IBS5 1-528): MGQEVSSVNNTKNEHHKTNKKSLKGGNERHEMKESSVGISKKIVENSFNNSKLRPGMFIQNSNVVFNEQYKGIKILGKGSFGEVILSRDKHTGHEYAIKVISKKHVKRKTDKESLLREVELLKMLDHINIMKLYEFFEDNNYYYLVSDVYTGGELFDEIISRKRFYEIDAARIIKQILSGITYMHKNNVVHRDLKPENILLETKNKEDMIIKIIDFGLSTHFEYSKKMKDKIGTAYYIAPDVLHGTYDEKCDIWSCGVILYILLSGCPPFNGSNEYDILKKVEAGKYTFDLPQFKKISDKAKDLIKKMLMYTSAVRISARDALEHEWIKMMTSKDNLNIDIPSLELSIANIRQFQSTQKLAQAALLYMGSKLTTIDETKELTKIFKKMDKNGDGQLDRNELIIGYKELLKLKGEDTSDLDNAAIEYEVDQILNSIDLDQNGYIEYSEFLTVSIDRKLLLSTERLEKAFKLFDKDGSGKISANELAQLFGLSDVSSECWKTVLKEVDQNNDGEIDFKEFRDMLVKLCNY
Protocol: Biochemical assays were performed in white 384-well plates (Nunc). Liquid transfers were done manually with 8-channel pipets. Compounds were initially tested in a single-point screen (final concentration 1 μM). […] The catalytic activity of each kinase was considered proportional to ATP consumed, as determined from measurements of residual [ATP] with the luciferase-based reagent Kinase-Glo (Promega) following incubation. Luminescence (proportional to residual [ATP]) was measured on the plate readers FLx800 (BioTek Instruments, Winooski, VT, USA) and MicroBeta^2 (PerkinElmer, Waltham, MA, USA). Incubation times were chosen to ensure near-complete ATP depletion in the absence of inhibition, thus maximizing the difference in signal between inhibited and uninhibited wells.
40 μM Syntide-2 was used as a substrate; BKI-1 [14] was used as a control inhibitor, while reaction mixtures lacking Syntide-2 were included as an additional negative control. Incubation time was 90 minutes. Reactions were terminated by adding excess EGTA (5 mM), which sequesters Ca^2+ and halts calcium-dependent kinase activity.

[3] = target: T3, PKG (Plasmodium falciparum, UniProt Q8I719); test: PKG IC50 (supplementary data file of hits); assay type: biochemical
T3 sequence (Q8I719 whole entry): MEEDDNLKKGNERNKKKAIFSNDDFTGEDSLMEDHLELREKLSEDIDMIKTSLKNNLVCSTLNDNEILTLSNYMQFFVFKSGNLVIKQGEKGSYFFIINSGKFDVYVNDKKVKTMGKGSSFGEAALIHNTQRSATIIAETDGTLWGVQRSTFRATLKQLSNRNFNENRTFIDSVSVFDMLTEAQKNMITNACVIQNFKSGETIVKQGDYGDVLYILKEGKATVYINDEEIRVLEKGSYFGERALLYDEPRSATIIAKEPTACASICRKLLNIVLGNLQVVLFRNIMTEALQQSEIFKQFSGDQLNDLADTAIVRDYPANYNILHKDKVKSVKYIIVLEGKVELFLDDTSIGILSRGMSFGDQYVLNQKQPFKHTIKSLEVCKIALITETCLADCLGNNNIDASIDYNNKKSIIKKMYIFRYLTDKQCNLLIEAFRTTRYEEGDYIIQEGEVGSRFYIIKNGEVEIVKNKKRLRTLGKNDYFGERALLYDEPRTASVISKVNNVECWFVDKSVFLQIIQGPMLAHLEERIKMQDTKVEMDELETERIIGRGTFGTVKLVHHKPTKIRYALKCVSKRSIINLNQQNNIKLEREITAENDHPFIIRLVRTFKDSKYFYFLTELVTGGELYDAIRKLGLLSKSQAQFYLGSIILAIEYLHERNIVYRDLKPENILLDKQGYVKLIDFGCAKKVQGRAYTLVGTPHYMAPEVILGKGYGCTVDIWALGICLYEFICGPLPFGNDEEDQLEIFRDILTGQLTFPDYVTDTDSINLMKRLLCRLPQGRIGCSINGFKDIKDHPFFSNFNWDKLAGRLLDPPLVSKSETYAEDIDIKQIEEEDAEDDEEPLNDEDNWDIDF
Text: (§1) Supplement pone.0149996.s003.xls, sheet "combined_1_sorted"

[4] = system: HepG2 cells; settings: HepG2 cells, cited from earlier work
[5] = system: P. falciparum 3D7 cells; settings: P. falciparum 3D7, cited from earlier work
[6] = system: DD2; set-up: method as in F.J. Gamo et al., Nature 2010; settings: P. falciparum Dd2; downloaded from ChEMBL ref F.J. Gamo et al., Nature 2010; cited from earlier work
[7] = system: 3D7 PFLDH; set-up: method as in F.J. Gamo et al., Nature 2010; settings: downloaded from ChEMBL ref F.J. Gamo et al., Nature 2010; cited from earlier work
[8] = target: T3, PKG; test: PKG IC50 (supplementary data file); assay type: biochemical
Text: as §1

[9] = system: P. falciparum DD2; set-up: method as in ChEMBL; settings: ref ChEMBL; cited from earlier work
[10] = system: 3D7 PFLDH; set-up: method as in ChEMBL; settings: ref ChEMBL; cited from earlier work
[11] = downloaded from ChEMBL ref F.J. Gamo et al., Nature 2010

T1 sequence (P62344 whole entry): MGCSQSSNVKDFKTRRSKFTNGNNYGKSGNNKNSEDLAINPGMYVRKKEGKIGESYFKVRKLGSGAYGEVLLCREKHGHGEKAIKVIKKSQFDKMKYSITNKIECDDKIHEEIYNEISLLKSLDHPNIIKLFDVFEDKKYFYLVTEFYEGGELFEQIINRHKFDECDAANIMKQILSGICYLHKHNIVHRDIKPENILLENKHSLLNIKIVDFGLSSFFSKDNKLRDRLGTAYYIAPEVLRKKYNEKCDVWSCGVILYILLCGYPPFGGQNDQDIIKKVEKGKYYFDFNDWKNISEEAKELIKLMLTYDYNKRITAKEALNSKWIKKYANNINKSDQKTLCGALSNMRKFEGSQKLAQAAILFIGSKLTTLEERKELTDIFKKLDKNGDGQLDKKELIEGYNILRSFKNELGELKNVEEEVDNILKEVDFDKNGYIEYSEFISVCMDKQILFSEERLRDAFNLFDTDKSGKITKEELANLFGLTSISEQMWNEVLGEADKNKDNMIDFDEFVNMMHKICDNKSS

| SMILES | IC50 [1] | IC50 [2] | IC50 [3] | PCT_INHIB_HEPG2 [4, 11] | PCT_IHB_3D7 [5, 11] | pXC50_3D7 [5, 11] | PCT_INHB_DD2 [6] | PCT_INHIB_3D7_PFLDH [7] | IC50 [8] | PCT_INHIB_HEPG2 ([4]; ref ChEMBL) | PCT_IHB_3D7 ([5]; ref ChEMBL) | pXC50_3D7 ([5]; ref ChEMBL) | PCT_INHB_DD2 [9] | PCT_INHIB_3D7_PFLDH [10] |
| --- | --- | --- | --- | --- | --- | --- | --- | --- | --- | --- | --- | --- | --- | --- |
| O=C(Nc1cccc(-c2nn3ncccc3c2-c2ccnc(Nc3cccc(-c4cnco4)c3)n2)c1)c1c(F)cccc1F [TCMDC-135550] | 23 nM | 145 nM | > 10000 nM | 96 | 97 | 6.779 | 98 | 2 |  |  |  |  |  |  |
| Cc1n[nH]c2ccc(-c3cc(OC[C@@H](N)Cc4ccccc4)cnc3-c3cc4ccccc4s3)cc12.O=C(O)C(F)(F)F [TCMDC-136352] |  | 563 nM |  |  |  |  |  |  | > 10 µM | 41 | 99 | 6.092 | 68 | 0 |
| CCn1c(-c2nonc2N)nc2c(-c3cccc(NC(=O)Nc4ccccc4OC)c3)ncc(OCCCN)c21.O=C(O)C(F)(F)F [TCMDC-136190] | 32 nM | 706 nM | 783 nM | 84 | 92 | 5.998 | 58 | 0 |  |  |  |  |  |  |
| O=C(Nc1cccc(-c2nn3ccccc3c2-c2ccnc(Nc3ccc(C(=O)N4CCOCC4)cc3)n2)c1)c1c(F)cccc1F [TCMDC-135910] | 92 nM | 311 nM | > 10000 nM | 72 | 99 | 6.417 | 97 | 4 |  |  |  |  |  |  |
| CC(C)(CN)c1cc(-c2ccc(Cl)c(O)c2)c(-c2ccncc2)o1.Cl [TCMDC-141334] | 13 nM | 433 nM | 42 nM | 44 | 92 | 5.944 | 97 | 7 |  |  |  |  |  |  |
| CCn1c(-c2nonc2N)nc2c(-c3cccc(NC(=O)Nc4cccc(C(F)(F)F)c4)c3)ncc(OCCCN)c21.O=C(O)C(F)(F)F [TCMDC-136178] | 15 nM | 342 nM | 2080 nM | 21 | 95 | 6.014 | 70 | 2 |  |  |  |  |  |  |
| CC(C)(C)CNCC(C)(C)c1nc(-c2ccc(Cl)c(O)c2)c(-c2ccncc2)[nH]1.Cl [TCMDC-140549] | 159 nM | 637 nM | > 10000 nM | 42 | 100 | 6.221 | 98 | 5 |  |  |  |  |  |  |
| CC(C)(CN)c1nc(-c2ccc(Br)c(O)c2)c(-c2ccncc2)[nH]1.Cl [TCMDC-140680] | 19 nM |  | 242 nM | 31 | 96 | 6.015 | 97 | 0 |  |  |  |  |  |  |
| CCN(CC)CCNC(=O)c1ccc(N/C=C2\C(=O)Nc3ccc(S(=O)(=O)Cc4c(Cl)cccc4Cl)cc32)cc1 [TCMDC-135945] |  | 73 nM |  |  |  |  |  |  | > 10 µM | 25 | 100 | 6.0758 | 56 | 3 |
| Cn1cccc1C(=O)Nc1cccc(-c2nn3ccccc3c2-c2ccnc(Nc3ccc4c(c3)OCCO4)n2)c1 [TCMDC-135663] |  | 191 nM | > 10000 nM | 12 | 95 | 5.869 | 27 | 4 |  |  |  |  |  |  |
| COc1cc(Nc2nccc(-c3c(-c4cccc(NC(=O)c5c(F)cccc5F)c4)nn4ncccc34)n2)cc(OC)c1OC [TCMDC-135684] |  | 45 nM | > 10000 nM | 96 | 98 | 7.4867 | 97 | 1 |  |  |  |  |  |  |
